What was measured:
[1] = test system: bacteriophage lambda (lambda-lac Z fusion prophage); assay: Biochemical phage induction assay (BIA), induction of bacteriophage lambda (FIG. 1); assay type: cell-based, E. coli (BR 513)
Experimental: The platinum complexes are tested using the BIA quantitative tube assay for dose-dependent induction of bacteriophage lambda according to a previously published procedure of Sarma, D. et al. Chem. Biol. Interactions, 46: 219-232 (1983), which is incorporated herein by reference. A permeable strain of E. coli (BR 513) containing lambda phage is used to test all samples. Expression time for the assay is 5 hours at 38° C. Fresh dilutions of test samples are made in saline (0.85%) on the day of the experiment. Samples are made at 10×final concentration and dispensed according to assay procedure. Final concentrations are 300 μg/ml, 200 μg/ml, 100 μg/ml, 60 μg/ml, 25 μg/ml, 10 μg/ml and a zero control.
This strain of bacteria contains a chromosomally integrated lambda-lac Z fusion phage under control of the lambda repressor. Treatment with DNA-damaging agents leads to derepression of prophage and synthesis of β-galacto-sidase, product of the lac Z gene. β-galactosidase is detected by reaction with a substrate (O-nitrophenyl-D-galactopyranoside (ONPG)) to give a yellow-colored product. Tubes are incubated at 28° C. (a few minutes to several hours to an A420 ≈0.5-1.0). Color development is stopped by the addition of base (1M Na2 CO3), and the yellow color is measured by absorbance at 420 nm. The exact time required for color development is recorded. Enzyme Units=100 A420 /thr where A420 =absorbance at 420 nm; thr =time required to develop yellow color in hours. One enzyme unit is the approximate value of an uninduced control tube at zero time.
This assay detects a wide variety of compounds which interact with DNA. […] This finding may support the hypothesis that platinum IV complexes are chemically less reactive. However, in vivo there is evidence that platinum IV complexes may be reduced to platinum (II) complexes [Pendyala, L. Proceedings 13th International Cancer Congress, Seatle, Wash., #3034, page 531, (1982)]. […] It is noted that the four isomers are not equal in their ability to induce the prophage.

[2] = test system: L1210 and L1210/Cisplatin leukemia; assay: Total number of long-term survivors in Tables 2-4; assay type: in vivo, CD2Fl mice; conditions: for Total number of long-term survivors: Tables 2-4 summed
Excerpt: If one summarizes the data in Tables 2-4 by totalling the number of long-term survivors, unexpected differences among the isomers become apparent. For example, the trans l compound produced 30 long-term survivors.

[3] = test system: IP-Implanted L1210/Cisplatin; assay: Comparison of isomers: long term survivors and weight differences in treating IP-implanted L1210/Cisplatin (Table 6); assay type: in vivo, mice
Excerpt: Comparative data for the others are as follows: 27 for trans d, 27 for trans d l and 13 for cis. […] The higher the ratio the more convenient it is to prepare a formulation for intravenous administration to patients which is shown in Table 7.

[4] = Comparative water solubilities of platinum complexes (Table 7)
[5] = Solubility of platinum complexes (Table I and preparation examples); assay type: physicochemical

Molecule	Concentration of optimal effect in prophage induction [1]	Effectiveness in inducing prophage [1]	Prophage induction, enzyme units [1]	Total number of long-term survivors [2]	Total Grams of Weight Difference [3]	Total number of long-term survivors [3]	Relative biological activity ([2]; mouse, in vivo)	Water Solubility ([4]; Table 7)	Water Solubility mg/L / Mouse Optimal Dose (mg/kg) ([4]; ratio of water solubility to mouse optimal dose)	Ratio of 2/1 (weight difference / long-term survivors) [3]	Solubility in DMF ([5]; DMF)	Solubility in methanol ([5]; methanol)	Solubility in methanol-acetone ([5]; methanol-acetone (1:1))	Solubility in water ([5]; water)
[Cl][Pt-2]1([Cl])([Cl])([Cl])[NH2+][C@@H]2CCCC[C@H]2[NH2+]1 [trans (l), (1R,2R)-Tetrachloro-trans-1,2-cyclohexanediammine platinum (IV)]	50 µg/mL	most effective inducers among the four	about 104 enzyme units	30	-6.0 Grams	17								
[Cl][Pt]1([Cl])([Cl])([Cl])[NH]C2CCCCC2[NH]1 (stereo not drawn) [trans (d, l), (d,l)-Tetrachloro-trans-1,2-cyclohexanediamine platinum (IV)]		intermediate in effectiveness	about 68 enzyme units	27	-10.0 Grams	12								
Tetrachloro-cis-1,2-cyclohexanediamine platinum (IV)		practically inert		13	-5.6 Grams	4	relatively lower biological activity	2,000 mg/L	250 mg/L / (mg/kg)	1.40	250 mg/mL	50 mg/mL	200 mg/mL	< 10 mg/mL
[Cl][Pt-2]1([Cl])([Cl])([Cl])[NH2+][C@H]2CCCC[C@@H]2[NH2+]1 [trans (d), (1S, 2S)-Tetrachloro-trans-1,2-cyclohexanediamine platinum (IV)]	25 µg/mL	most effective inducers among the four	about 104 enzyme units	27	-11.9 Grams	11								

Source: patent US4599352A, “Antineoplastic platinum (IV) complexes and compositions” (priority 1984, dated 1986)
